Data as given in the supplement of paper PMC10627819.

Columns and labels:
B. subtilis 168 [1] = experiment: fitness (endpoint OD595 vs no drug) (fraction); higher = more growth; conditions: one replicate
Outline: (§1)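 Cultures at OD595 0.01 were dispensed into 384-well plates in TSB, LB Lennox or CY and incubated at 37 °C. Every 30 min for 14 h, OD595 was read and corrected by the first reading. Fitness is the optical density at entry into stationary phase relative to the robust mean of no-drug control wells, capped at 1.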

S. pneumoniae D39V [2] = experiment: as above
Outline: as §1

S. aureus DSM 20231 [3] = experiment: as above
Outline: as §1

S. aureus Newman [4] = experiment: as above
Outline: as §1

B. subtilis 168 [5] = experiment: Bliss interaction score (quartile over a dose matrix) (fitness difference); higher = more antagonism (negative = synergy)
Outline: (§2)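 At entry into stationary phase, OD595 was recorded and divided by the robust mean of the no-drug wells on that plate, with any value above 1 set to 1. This gives the fitness measure used throughout. Single-drug fitness was inferred from combination data, and the Bliss score, observed minus product-expected fitness, is shown as quartiles across technical, biological and donor/recipient replicates.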

S. pneumoniae D39V [6] = experiment: as above
Outline: as §2

S. aureus DSM 20231 [7] = experiment: as above
Outline: as §2

S. aureus Newman [8] = experiment: as above
Outline: as §2
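Wherever Bliss interaction score (quartile over a dose matrix) is given: first quartile when negative (synergy) and third quartile when positive (antagonism).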

C[n+]1ccc(-c2cc[n+](C)cc2)cc1 [Paraquat] + CN(N=O)C(=O)N[C@@H](C=O)[C@@H](O)[C@H](O)[C@H](O)CO [Streptozotocin]
fitness
Conditions | first compound 1.25 µg/mL | first compound 1.5 µg/mL | first compound 2.5 µg/mL | first compound 3 µg/mL | first compound 5 µg/mL | first compound 6 µg/mL
B. subtilis 168 [1], partner 0.15 µg/mL | ≥ 1 | – | ≥ 1 | – | 0.845 | –
B. subtilis 168 [1], partner 0.3 µg/mL | ≥ 1 | – | 0.964 | – | 0.851 | –
B. subtilis 168 [1], partner 0.6 µg/mL | 0.945 | – | 0.956 | – | 0.776 | –
S. aureus DSM 20231 [3], partner 0.15 µg/mL | 0.865 | – | 0.835 | – | 0.774 | –
S. aureus DSM 20231 [3], partner 0.3 µg/mL | 0.795 | – | 0.842 | – | 0.758 | –
S. aureus DSM 20231 [3], partner 0.6 µg/mL | 0.679 | – | 0.689 | – | 0.636 | –
S. aureus Newman [4], partner 0.15 µg/mL | 0.781 | – | 0.769 | – | 0.727 | –
S. aureus Newman [4], partner 0.3 µg/mL | 0.66 | – | 0.654 | – | 0.637 | –
S. aureus Newman [4], partner 0.6 µg/mL | 0.523 | – | 0.536 | – | 0.508 | –
S. pneumoniae D39V [2], partner 1.2 µg/mL | – | 0.989 | – | 0.983 | – | 0.969
S. pneumoniae D39V [2], partner 2.4 µg/mL | – | 0.97 | – | 0.926 | – | 0.977
S. pneumoniae D39V [2], partner 4.8 µg/mL | – | 0.944 | – | 0.955 | – | 0.933

Conditions | Bliss interaction score
B. subtilis 168 [5] | 0.0356
S. aureus DSM 20231 [7] | -0.0445
S. aureus Newman [8] | -0.0522
S. pneumoniae D39V [6] | 0.0357

CN(N=O)C(=O)N[C@@H](C=O)[C@@H](O)[C@H](O)[C@H](O)CO [Streptozotocin] + CC1=C\[C@@H](O)CC(=O)Cc2nc(co2)C(=O)N2CCC=C2C(=O)O[C@H](C(C)C)[C@H](C)/C=C/C(=O)NC\C=C\1 [Virginiamycin M1]
fitness
Conditions | first compound 0.15 µg/mL | first compound 0.3 µg/mL | first compound 0.6 µg/mL | first compound 1.2 µg/mL | first compound 2.4 µg/mL | first compound 4.8 µg/mL
B. subtilis 168 [1], partner 0.0625 µg/mL | ≥ 1 | 0.975 | 0.991 | – | – | –
B. subtilis 168 [1], partner 0.125 µg/mL | 0.949 | 0.92 | 0.944 | – | – | –
B. subtilis 168 [1], partner 0.25 µg/mL | ≥ 1 | ≥ 1 | 0.958 | – | – | –
S. aureus DSM 20231 [3], partner 0.0625 µg/mL | 0.844 | 0.791 | 0.66 | – | – | –
S. aureus DSM 20231 [3], partner 0.125 µg/mL | 0.88 | 0.83 | 0.714 | – | – | –
S. aureus DSM 20231 [3], partner 0.25 µg/mL | 0.861 | 0.753 | 0.681 | – | – | –
S. pneumoniae D39V [2], partner 0.5 µg/mL | – | – | – | 0.985 | 0.99 | 0.981
S. pneumoniae D39V [2], partner 1 µg/mL | – | – | – | 0.944 | 0.966 | 0.968
S. pneumoniae D39V [2], partner 2 µg/mL | – | – | – | 0.935 | 0.939 | 0.911

fitness, one replicate
Conditions | first compound 0.15 µg/mL | first compound 0.3 µg/mL | first compound 0.6 µg/mL | first compound 1.2 µg/mL | first compound 2.4 µg/mL | first compound 4.8 µg/mL
S. aureus DSM 20231 [3], partner 0.5 µg/mL | 0.616 | 0.686 | 0.581 | – | – | –
S. aureus DSM 20231 [3], partner 1 µg/mL | 0.61 | 0.69 | 0.667 | – | – | –
S. aureus Newman [4], partner 0.0625 µg/mL | 0.843 | 0.677 | 0.491 | – | – | –
S. aureus Newman [4], partner 0.125 µg/mL | 0.831 | 0.682 | 0.504 | – | – | –
S. aureus Newman [4], partner 0.25 µg/mL | 0.822 | 0.661 | 0.53 | – | – | –
S. aureus Newman [4], partner 0.5 µg/mL | 0.77 | 0.639 | 0.55 | – | – | –
S. aureus Newman [4], partner 1 µg/mL | 0.765 | 0.672 | 0.517 | – | – | –
S. aureus Newman [4], partner 2 µg/mL | 0.748 | 0.629 | 0.477 | – | – | –
S. pneumoniae D39V [2], partner 0.15 µg/mL | – | – | – | 0.913 | 0.94 | 0.88
S. pneumoniae D39V [2], partner 0.3 µg/mL | – | – | – | 0.848 | 0.93 | 0.925

Conditions | Bliss interaction score
B. subtilis 168 [5] | 0.0477
S. aureus DSM 20231 [7] | -0.0415
S. aureus Newman [8] | 0.0262
S. pneumoniae D39V [6] | -0.0403
